This experiment relates to c-Myc. Kind of experiment: c-Myc immunofluorescence assay. It counts as cell-based, human. Conditions: A549 cells, 24 hours, anti-c-Myc immunofluorescence. Put shortly:
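Read-out is imaged c-Myc immunofluorescence, nucleus-segmented, in A549 lung carcinoma cells exposed to compound dose series for 24 h after 48 h growth. Fixation 4% paraformaldehyde, Triton permeabilization, antibody staining at room temperature; EC50 from logistic fit of signal versus concentration.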
For the compound `COc1ccc(-c2noc(N3CCC(C(=O)NCC4(c5ccc(F)cc5F)CC4)CC3)n2)cc1` [Compound 307, N-((1-(2,4-difluorophenyl)cyclopropyl)methyl)-1-(3-(4-methoxyphenyl)-1,2,4-oxadiazol-5-yl)piperidine-4-carboxamide], the “Myc Efficacy (−LogEC50)” value is “+ (+ >3 and <5)”.
Consider `COc1ccc(-c2noc(N3CCC(C(=O)NCc4ccc(OC)c(C(F)(F)F)c4)CC3)n2)cc1` [Compound 308, N-(4-methoxy-3-(trifluoromethyl)benzyl)-1-(3-(4-methoxyphenyl)-1,2,4-oxadiazol-5-yl)piperidine-4-carboxamide], for which the “Myc Efficacy (−LogEC50)” value is “+ (+ >3 and <5)”.
`COc1ccc(-c2noc(N3CCC(C(=O)NCCc4cccc(C(F)(F)F)n4)CC3)n2)cc1` [Compound 309, 1-(3-(4-methoxyphenyl)-1,2,4-oxadiazol-5-yl)-N-(2-(6-(trifluoromethyl)pyridin-2-yl)ethyl)piperidine-4-carboxamide]: the “Myc Efficacy (−LogEC50)” value is recorded as “− (− ≤3)”.
`COc1ccc(-c2noc(N3CCC(C(=O)NC(C)Cc4c[nH]c5ccccc45)CC3)n2)cc1` (centres unmarked) [Compound 310, N-(1-(1H-indol-3-yl)propan-2-yl)-1-(3-(4-methoxyphenyl)-1,2,4-oxadiazol-5-yl)piperidine-4-carboxamide]: the “Myc Efficacy (−LogEC50)” value is “+ (+ >3 and <5)”.
The value for `COc1ccc(-c2noc(N3CCC(C(=O)NCc4cc(C)ccc4F)CC3)n2)cc1` [Compound 311, N-(2-fluoro-5-methylbenzyl)-1-(3-(4-methoxyphenyl)-1,2,4-oxadiazol-5-yl)piperidine-4-carboxamide] was “− (− ≤3)”; that for `COc1ccc(-c2noc(N3CCC(C(=O)NC4CCC5(CCOCC5)CC4)CC3)n2)cc1` [Compound 312, 1-(3-(4-methoxyphenyl)-1,2,4-oxadiazol-5-yl)-N-(3-oxaspiro[5.5]undecan-9-yl)piperidine-4-carboxamide] was “+ (+ >3 and <5)”.
The value for `COc1ccc(-c2noc(N3CCC(C(=O)NC(C)C4CCCCO4)CC3)n2)cc1` (centres unmarked) [Compound 313, 1-(3-(4-methoxyphenyl)-1,2,4-oxadiazol-5-yl)-N-(1-(tetrahydro-2H-pyran-2-yl)ethyl)piperidine-4-carboxamide] was “− (− ≤3)”; that for `COc1ccc(-c2noc(N3CCC(C(=O)NCCN(C)C4CC4)CC3)n2)cc1` [Compound 314, N-(2-(cyclopropyl(methyl)amino)ethyl)-1-(3-(4-methoxyphenyl)-1,2,4-oxadiazol-5-yl)piperidine-4-carboxamide] was “+ (+ >3 and <5)”; that for `COc1ccc(-c2noc(N3CCC(C(=O)N[C@@H](CCO)C(C)C)CC3)n2)cc1` [Compound 315, (S)-N-(1-hydroxy-4-methylpentan-3-yl)-1-(3-(4-methoxyphenyl)-1,2,4-oxadiazol-5-yl)piperidine-4-carboxamide] was “+ (+ >3 and <5)”.
The value for `COc1ccc(-c2noc(N3CCC(C(=O)N[C@H]4CCN(Cc5ccccc5)C4)CC3)n2)cc1` [Compound 316, (S)-N-(1-benzylpyrrolidin-3-yl)-1-(3-(4-methoxyphenyl)-1,2,4-oxadiazol-5-yl)piperidine-4-carboxamide] was “+ (+ >3 and <5)”; that for `COc1ccc(-c2noc(N3CCC(C(=O)NCCc4c[nH]c5cc(C)ccc45)CC3)n2)cc1` [Compound 317, 1-(3-(4-methoxyphenyl)-1,2,4-oxadiazol-5-yl)-N-(2-(6-methyl-1H-indol-3-yl)ethyl)piperidine-4-carboxamide] was “++ (++ ≥5 and <6)”; that for `COc1ccc(-c2noc(N3CCC(C(=O)NCc4cnc(C(F)(F)F)s4)CC3)n2)cc1` [Compound 318, 1-(3-(4-methoxyphenyl)-1,2,4-oxadiazol-5-yl)-N-((2-(trifluoromethyl)thiazol-5-yl)methyl)piperidine-4-carboxamide] was “+ (+ >3 and <5)”.
For the compound `COc1ccc(-c2noc(N3CCC(C(=O)Nc4cc(Cl)c(Cl)cn4)CC3)n2)cc1` [Compound 319, N-(4,5-dichloropyridin-2-yl)-1-(3-(4-methoxyphenyl)-1,2,4-oxadiazol-5-yl)piperidine-4-carboxamide], the “Myc Efficacy (−LogEC50)” value is “+ (+ >3 and <5)”.
For `COc1ccc(-c2noc(N3CCC(C(=O)NCC4CCN(Cc5ccco5)C4)CC3)n2)cc1` (centres unmarked) [Compound 320, N-((1-(furan-2-ylmethyl)pyrrolidin-3-yl)methyl)-1-(3-(4-methoxyphenyl)-1,2,4-oxadiazol-5-yl)piperidine-4-carboxamide] the value was “+ (+ >3 and <5)”.
The value for `COc1ccc(-c2noc(N3CCC(C(=O)NCC4CCN(Cc5ccccc5O)C4)CC3)n2)cc1` (centres unmarked) [Compound 321, N-((1-(2-hydroxybenzyl)pyrrolidin-3-yl)methyl)-1-(3-(4-methoxyphenyl)-1,2,4-oxadiazol-5-yl)piperidine-4-carboxamide] was “++ (++ ≥5 and <6)”; that for `COc1ccc(-c2noc(N3CCC(C(=O)NCC4CCN(Cc5ccncc5)C4)CC3)n2)cc1` (centres unmarked) [Compound 322, 1-(3-(4-methoxyphenyl)-1,2,4-oxadiazol-5-yl)-N-((1-(pyridin-4-ylmethyl)pyrrolidin-3-yl)methyl)piperidine-4-carboxamide] was “++ (++ ≥5 and <6)”; that for `COc1ccc(-c2noc(N3CCC(C(=O)NCC4CCN(CC5CCCC5)C4)CC3)n2)cc1` (centres unmarked) [Compound 323, N-((1-(cyclopentylmethyl)pyrrolidin-3-yl)methyl)-1-(3-(4-methoxyphenyl)-1,2,4-oxadiazol-5-yl)piperidine-4-carboxamide] was “++ (++ ≥5 and <6)”.
For `C#Cc1cccc(CN2CCC(CNC(=O)C3CCN(c4nc(-c5ccc(OC)cc5)no4)CC3)C2)c1` (centres unmarked) [Compound 324, N-((1-(3-ethynylbenzyl)pyrrolidin-3-yl)methyl)-1-(3-(4-methoxyphenyl)-1,2,4-oxadiazol-5-yl)piperidine-4-carboxamide] the value was “++ (++ ≥5 and <6)”; for `COc1ccc(-c2noc(N3CCC(C(=O)NCC4CCN(Cc5cc[nH]c5)C4)CC3)n2)cc1` (centres unmarked) [Compound 325, N-((1-((1H-pyrrol-3-yl)methyl)pyrrolidin-3-yl)methyl)-1-(3-(4-methoxyphenyl)-1,2,4-oxadiazol-5-yl)piperidine-4-carboxamide], “+ (+ >3 and <5)”.
Turning to `COc1ccc(-c2noc(N3CCC(C(=O)NCC4CCN(Cc5cc(C)ccn5)C4)CC3)n2)cc1` (centres unmarked) [Compound 326, 1-(3-(4-methoxyphenyl)-1,2,4-oxadiazol-5-yl)-N-((1-((4-methylpyridin-2-yl)methyl)pyrrolidin-3-yl)methyl)piperidine-4-carboxamide], the “Myc Efficacy (−LogEC50)” value is “++ (++ ≥5 and <6)”.
The value for `COc1ccc(-c2noc(N3CCC(C(=O)NCC4CCN(CC(C)(C)C)C4)CC3)n2)cc1` (centres unmarked) [Compound 327, 1-(3-(4-methoxyphenyl)-1,2,4-oxadiazol-5-yl)-N-((1-neopentylpyrrolidin-3-yl)methyl)piperidine-4-carboxamide] was “+ (+ >3 and <5)”.
The value for `COc1ccc(-c2noc(N3CCC(C(=O)NCC4CCN(Cc5ccccc5C)C4)CC3)n2)cc1` (centres unmarked) [Compound 328, 1-(3-(4-methoxyphenyl)-1,2,4-oxadiazol-5-yl)-N-((1-(2-methylbenzyl)pyrrolidin-3-yl)methyl)piperidine-4-carboxamide] was “++ (++ ≥5 and <6)”.
For `COc1ccc(-c2noc(N3CCC(C(=O)NCC4CCN(Cc5cnccc5C)C4)CC3)n2)cc1` (centres unmarked) [Compound 329, 1-(3-(4-methoxyphenyl)-1,2,4-oxadiazol-5-yl)-N-((1-((4-methylpyridin-3-yl)methyl)pyrrolidin-3-yl)methyl)piperidine-4-carboxamide] the value was “+ (+ >3 and <5)”; for `COc1ccc(-c2noc(N3CCC(C(=O)NCC4CCN(Cc5ccoc5)C4)CC3)n2)cc1` (centres unmarked) [Compound 330, N-((1-(furan-3-ylmethyl)pyrrolidin-3-yl)methyl)-1-(3-(4-methoxyphenyl)-1,2,4-oxadiazol-5-yl)piperidine-4-carboxamide], “+ (+ >3 and <5)”.
In the case of `COc1ccc(-c2noc(N3CCC(C(=O)NCC4CCN(Cc5ccc(F)cc5)C4)CC3)n2)cc1` (centres unmarked) [Compound 331, N-((1-(4-fluorobenzyl)pyrrolidin-3-yl)methyl)-1-(3-(4-methoxyphenyl)-1,2,4-oxadiazol-5-yl)piperidine-4-carboxamide], the “Myc Efficacy (−LogEC50)” value was “++ (++ ≥5 and <6)”.
The value for `COc1ccc(-c2noc(N3CCC(C(=O)NCC4CCN(Cc5cccc(F)c5)C4)CC3)n2)cc1` (centres unmarked) [Compound 332, N-((1-(3-fluorobenzyl)pyrrolidin-3-yl)methyl)-1-(3-(4-methoxyphenyl)-1,2,4-oxadiazol-5-yl)piperidine-4-carboxamide] was “++ (++ ≥5 and <6)”; that for `COc1ccc(-c2noc(N3CCC(C(=O)NCC4CCN(Cc5cncc(F)c5)C4)CC3)n2)cc1` (centres unmarked) [Compound 333, N-((1-((5-fluoropyridin-3-yl)methyl)pyrrolidin-3-yl)methyl)-1-(3-(4-methoxyphenyl)-1,2,4-oxadiazol-5-yl)piperidine-4-carboxamide] was “+ (+ >3 and <5)”.
Turning to `COc1ccc(-c2noc(N3CCC(C(=O)NCC4CCN(Cc5ncccc5F)C4)CC3)n2)cc1` (centres unmarked) [Compound 334, N-((1-((3-fluoropyridin-2-yl)methyl)pyrrolidin-3-yl)methyl)-1-(3-(4-methoxyphenyl)-1,2,4-oxadiazol-5-yl)piperidine-4-carboxamide], the “Myc Efficacy (−LogEC50)” value is “+ (+ >3 and <5)”.
With `COc1ccc(-c2noc(N3CCC(C(=O)NCC4CCN(Cc5ccc(F)cn5)C4)CC3)n2)cc1` (centres unmarked) [Compound 335, N-((1-((5-fluoropyridin-2-yl)methyl)pyrrolidin-3-yl)methyl)-1-(3-(4-methoxyphenyl)-1,2,4-oxadiazol-5-yl)piperidine-4-carboxamide], the “Myc Efficacy (−LogEC50)” value is “++ (++ ≥5 and <6)”.

These data come from patent US12344600B2, “c-Myc mRNA translation modulators and uses thereof in the treatment of cancer” (Anima Biotech Inc., priority 2022, dated 2025).
